Test results taken from PubChem BioAssay AID250 (DTP/NCI, 2004).
“And” between values parts separate entries of the source, which are not always exact repeats. Equal values may be shown once. Inconclusive results and toxic doses are left out. How the source made its calls: active means survival T/C of 150% or more; inactive means T/C below 125% in these data.

Test system: BDF1 mice, L1210 leukemia sc, survival T/C
Experiment: NCI In Vivo Anticancer Drug Screen. Data for tumor model L1210 Leukemia (subcutaneous) in B6D2F1 (BDF1) mice
Details: endpoint: median survival time, higher = longer survival
Method in brief: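 Mice carrying transplanted tumors received test compounds, and survival or tumor size was measured. Values are the treated-group measurement (T) divided by that of the vehicle-treated control group (C).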

Measured: T/C

NC(=S)N/N=C/c1ccc(O)cn1
inactive: dose: 8.4 mg/kg/injection, schedule: Q03HX024 (sc), vehicle: none 120 % of control | dose: 50.0 mg/kg/injection, schedule: Q04DX003 (sc), vehicle: other 107 % of control and 110 % of control | dose: 60.0 mg/kg/injection, schedule: Q03HX024 (ip), vehicle: other 100 % of control | dose: 65.0 mg/kg/injection, schedule: Q01DX Z (sc), vehicle: saline 104 % of control | dose: 100.0 mg/kg/injection, schedule: Q04DX003 (ip), vehicle: other 111 % of control | dose: 100.0 mg/kg/injection, schedule: Q04DX003 (sc), vehicle: other 107 % of control and 110 % of control and 111 % of control | dose: 108.0 mg/kg/injection, schedule: Q01DX Z (sc), vehicle: saline 104 % of control | dose: 108.0 mg/kg/injection, schedule: Q04DX003 (sc), vehicle: none 100 % of control | dose: 108.0 mg/kg/injection, schedule: Q04DX003 (sc), vehicle: other 103 % of control and 105 % of control | dose: 180.0 mg/kg/injection, schedule: Q01DX Z (sc), vehicle: saline 104 % of control | dose: 180.0 mg/kg/injection, schedule: Q02DX005 (sc), vehicle: other 99 % of control | dose: 180.0 mg/kg/injection, schedule: Q04DX003 (sc), vehicle: none 100 % of control | dose: 180.0 mg/kg/injection, schedule: Q04DX003 (sc), vehicle: other 104 % of control and 105 % of control | dose: 180.0 mg/kg/injection, schedule: Q11HX006 (sc), vehicle: water 122 % of control | dose: 200.0 mg/kg/injection, schedule: Q04DX003 (ip), vehicle: other 111 % of control | dose: 200.0 mg/kg/injection, schedule: Q04DX003 (sc), vehicle: other 98 % of control and 100 % of control and 116 % of control | dose: 300.0 mg/kg/injection, schedule: Q01DX Z (sc), vehicle: saline 108 % of control | dose: 300.0 mg/kg/injection, schedule: Q02DX005 (sc), vehicle: other 108 % of control | dose: 300.0 mg/kg/injection, schedule: Q04DX003 (sc), vehicle: none 100 % of control | dose: 300.0 mg/kg/injection, schedule: Q04DX003 (sc), vehicle: other 105 % of control and 111 % of control | dose: 300.0 mg/kg/injection, schedule: Q04DX003 (sc), vehicle: water 111 % of control | dose: 300.0 mg/kg/injection, schedule: Q11HX006 (sc), vehicle: water 122 % of control | dose: 400.0 mg/kg/injection, schedule: Q01DX009 (sc), vehicle: other 88 % of control | dose: 400.0 mg/kg/injection, schedule: Q04DX003 (ip), vehicle: other 111 % of control | dose: 400.0 mg/kg/injection, schedule: Q04DX003 (sc), vehicle: other 99 % of control and 100 % of control and 116 % of control | dose: 500.0 mg/kg/injection, schedule: Q02DX005 (sc), vehicle: other 100 % of control and 117 % of control | dose: 500.0 mg/kg/injection, schedule: Q04DX003 (sc), vehicle: none 100 % of control | dose: 500.0 mg/kg/injection, schedule: Q04DX003 (sc), vehicle: other 106 % of control and 111 % of control | dose: 833.0 mg/kg/injection, schedule: Q02DX005 (sc), vehicle: other 105 % of control and 60 % of control | dose: 1388.0 mg/kg/injection, schedule: Q02DX005 (sc), vehicle: other 120 % of control and 60 % of control
active: dose: 10.0 mg/kg/injection, schedule: Q03HX024 (sc), vehicle: other 155 % of control | dose: 20.0 mg/kg/injection, schedule: Q03HX024 (ip), vehicle: other 183 % of control | dose: 20.0 mg/kg/injection, schedule: Q03HX024 (sc), vehicle: other 177 % of control | dose: 23.0 mg/kg/injection, schedule: Q03HX024 (sc), vehicle: none 175 % of control | dose: 30.0 mg/kg/injection, schedule: Q03HX024 (ip), vehicle: other 238 % of control | dose: 30.0 mg/kg/injection, schedule: Q03HX024 (sc), vehicle: other 266 % of control | dose: 39.0 mg/kg/injection, schedule: Q03HX024 (sc), vehicle: none 165 % of control | dose: 65.0 mg/kg/injection, schedule: Q01DX009 (sc), vehicle: other 158 % of control and 166 % of control | dose: 65.0 mg/kg/injection, schedule: Q08DX009 (sc), vehicle: none 150 % of control | dose: 100.0 mg/kg/injection, schedule: Q01DX009 (ip), vehicle: other 150 % of control | dose: 100.0 mg/kg/injection, schedule: Q01DX009 (sc), vehicle: other 155 % of control | dose: 108.0 mg/kg/injection, schedule: Q01DX009 (sc), vehicle: other 163 % of control and 166 % of control | dose: 108.0 mg/kg/injection, schedule: Q08DX009 (sc), vehicle: none 155 % of control | dose: 180.0 mg/kg/injection, schedule: Q01DX009 (sc), vehicle: other 170 % of control and 177 % of control | dose: 180.0 mg/kg/injection, schedule: Q08DX009 (sc), vehicle: none 150 % of control | dose: 200.0 mg/kg/injection, schedule: Q01DX009 (ip), vehicle: other 150 % of control | dose: 200.0 mg/kg/injection, schedule: Q01DX009 (sc), vehicle: other 150 % of control | dose: 300.0 mg/kg/injection, schedule: Q01DX009 (sc), vehicle: other 150 % of control | dose: 300.0 mg/kg/injection, schedule: Q08DX009 (sc), vehicle: none 160 % of control
